Where a name gives a salt, the structure may show the parent alone. Read-outs that look alike come from different tables or passages of the source.
Columns and labels:
[1] = tested on: striate body neurons; assay: inhibition of reduction in survival rate of neurons, striate body (number of surviving cells); type: cell-based; settings: Rattus norvegicus, Neuron, 144 h, 6 days, control 100%
Method: (§1) From a rat at the 18th day of pregnancy (having an 18 -day old embryo) the uterus was aseptically removed under etherification, and the fetus was obtained. The whole brain was collected from the fetus. From the brain placed in an L-15 medium were removed under a microscope the hippocampus, striate body, septum, cerebral cortex, and cerebellum. They were respectively minced with a knife. The minced tissue was treated by the addition of trypsin (0.25%) and DNase (0.01%) for 30 minutes at 37° C. to thereby isolate cells. The thus-isolated cells were suspended in Eagle's MEM medium supplemented with 10% fetal calf serum, and inoculated at a concentration of 4×10^4 cells/cm^2 into wells of a 48-well plate which had been coated with poly-L-lysin in advance. Following incubation for 24 hours, the medium was replaced by a serum-free DMEM/F-12 medium containing the drug. After three-days' additional incubation (six days for the striate body), the cells were fixed, stained, and the number of surviving cells in each well was counted.

[2] = tested on: cerebellum neurons; assay: inhibition of reduction in survival rate of neurons, cerebellum (number of surviving cells); type: cell-based; settings: Rattus norvegicus, Neuron, 72 h, 3 days, control 100%
Method: as §1

[3] = tested on: hippocampus neurons; assay: inhibition of reduction in survival rate of neurons, hippocampus (number of surviving cells); type: cell-based, rat; settings: for viability at 1 µg/mL / viability at 0.1 µg/mL / viability at 0.01 µg/mL / viability at 0.001 µg/mL / viability at 10 µg/mL: Rattus norvegicus, Neuron, 72 h, control 100%; for viability at 1 µg/mL: 10^-6 g/ml; for viability at 0.1 µg/mL: 10^-7 g/ml; for viability at 0.01 µg/mL: 10^-8 g/ml; for viability at 0.001 µg/mL: 10^-9 g/ml; for viability at 10 µg/mL: 10^-5 g/ml; for inhibitory effect against reduction in survival rate of neurons (in words): hippocampus cells, Example 2
Method: as §1, with “counted. Compounds (2) through (14) were tested analogously to Example 1 using hippocampus cells prepared in a manner similar to Example 1. As structural comparative compounds, the following compounds were used: 4H-pyran-4-one (hereinafter referred as Compound (15) and 3-methoxy-6 -hydroxymethyl-4H-pyran-4-one (hereinafter referred to as Compound (16)).” for “counted.”

[4] = tested on: brain neurons; assay: inhibition of reduction of brain neurons (overall statement); type: cell-based, rat; settings: concentration-dependent; activity of control: 100%
Method: as §1

[5] = tested on: hippocampus cells (neurites); assay: branching promotion effect on neurites; type: cell-based, rat; settings: one and two days after addition of the drug
Method: The hippocampus cells obtained in a manner similar to that in Example 1 were incubated for 24 hours in a medium containing fetal calf serum, then for a further 24 hours in a serum-free medium. Subsequently, the drug was added. When one day and two days elapsed after addition of the drug, photographs were taken of the same cells. The number of branches from the longest neurite was counted.

[6] = tested on: cerebral cortex neurons; assay: inhibition of reduction in survival rate of neurons, cerebral cortex (number of surviving cells); type: cell-based; settings: Rattus norvegicus, Cerebral cortex neuron, 72 h, 3 days, control 100%
Method: as §1

[7] = tested on: septum neurons; assay: inhibition of reduction in survival rate of neurons, septum (number of surviving cells); type: cell-based; settings: Rattus norvegicus, Neuron, 72 h, 3 days, control 100%
Method: as §1

[8] = oral toxicity (LD50), rats; settings: rat, in vivo, read-out: 50% lethal death (LD50)
[9] = oral toxicity (LD50), mice; settings: mouse, in vivo, read-out: 50% lethal death (LD50)
[10] = 3 days, read-out: Number of surviving cells, Hippocampus
[11] = read-out: Inhibitory effect against reduction in survival rate of neurons (survival rate class)

## CCCCCc1oc(C)c(OC)c(=O)c1O [Compound (1), 3-Hydroxy-6-methyl-5-methoxy-2-pentyl-4H-pyran-4-one]
[1]; 10^-6 g/ml
  viability at 1 µg/mL: 83.8%
[1]; 10^-7 g/ml
  viability at 0.1 µg/mL: 160%
[1]; 10^-8 g/ml
  viability at 0.01 µg/mL: 139%
[1]; 10^-9 g/ml
  viability at 0.001 µg/mL: 126%
[2]; 10^-6 g/ml
  viability at 1 µg/mL: 65.3%
[2]; 10^-7 g/ml
  viability at 0.1 µg/mL: 147%
[2]; 10^-8 g/ml
  viability at 0.01 µg/mL: 136%
[2]; 10^-9 g/ml
  viability at 0.001 µg/mL: 137%
[3]; [10]
  viability at 1 µg/mL: 57.8%
  viability at 0.1 µg/mL: 146%
  viability at 0.01 µg/mL: 134%
  viability at 0.001 µg/mL: 109%
[4]
  concentration range of effect of inhibiting reduction of neurons: 1 to 100 ng/mL
[5]
  branching promotion effect on neurites (in words): confirmed to have a branching promotion effect on neurites
[6]; 10^-6 g/ml
  viability at 1 µg/mL: 90.2%
[6]; 10^-7 g/ml
  viability at 0.1 µg/mL: 125%
[6]; 10^-8 g/ml
  viability at 0.01 µg/mL: 107%
[6]; 10^-9 g/ml
  viability at 0.001 µg/mL: 104%
[7]; 10^-6 g/ml
  viability at 1 µg/mL: 71.6%
[7]; 10^-7 g/ml
  viability at 0.1 µg/mL: 157%
[7]; 10^-8 g/ml
  viability at 0.01 µg/mL: 150%
[7]; 10^-9 g/ml
  viability at 0.001 µg/mL: 128%
[8]
  LD50: ≥ 1000 mg/kg
[9]
  LD50: ≥ 1000 mg/kg

## Cc1cc(=O)c(O)co1 [Compound (2), 3-Hydroxy-6-methyl-4H-pyran-4-one]
[3]; [11]
  viability at 10 µg/mL: 130 to 150%
  viability at 1 µg/mL: 110 to 130%
  viability at 0.1 µg/mL: 90 to 110%
  viability at 0.01 µg/mL: 90 to 110%
  viability at 0.001 µg/mL: 90 to 110%

## Cc1cc(=O)c(O)c(C)o1 [Compound (3), 3-Hydroxy-2,6-dimethyl-4H-pyran-4-one]
[3]; [11]
  viability at 10 µg/mL: 110 to 130%
  viability at 1 µg/mL: 130 to 150%
  viability at 0.1 µg/mL: 130 to 150%
  viability at 0.01 µg/mL: 110 to 130%
  viability at 0.001 µg/mL: 90 to 110%
[5]
  branching promotion effect on neurites (in words): confirmed to have a branching promotion effect on neurites

## CCCc1oc(C)cc(=O)c1O [Compound (4), 3-Hydroxy-6-methyl-2-propyl-4H-pyran-4-one]
[3]; [11]
  viability at 1 µg/mL: 90 to 110%
  viability at 0.1 µg/mL: 110 to 130%
  viability at 0.01 µg/mL: 90 to 110%
  viability at 0.001 µg/mL: 90 to 110%

## CCCCCc1oc(C)cc(=O)c1O [Compound (5), 3-Hydroxy-6-methyl-2-pentyl-4H-pyran-4-one]
[3]; [11]
  viability at 1 µg/mL: ≤ 90%
  viability at 0.1 µg/mL: 110 to 130%
  viability at 0.01 µg/mL: 90 to 110%
  viability at 0.001 µg/mL: 90 to 110%

## Cc1cc(=O)c(O)c(CO)o1 [Compound (6), 3-Hydroxy-6-methyl-2-hydroxymethyl-4H-pyran-4-one]
[3]; [11]
  viability at 10 µg/mL: 110 to 130%
  viability at 1 µg/mL: 110 to 130%
  viability at 0.1 µg/mL: 110 to 130%
  viability at 0.01 µg/mL: 90 to 110%
  viability at 0.001 µg/mL: 90 to 110%

## Cc1cc(=O)c(O)c(CN(C)C)o1 [Compound (7), 3-Hydroxy-6-methyl-2-dimethylaminomethyl-4H-pyran-4-one-HCl]
[3]; [11]
  viability at 10 µg/mL: 110 to 130%
  viability at 1 µg/mL: 110 to 130%
  viability at 0.1 µg/mL: 90 to 110%
  viability at 0.01 µg/mL: 90 to 110%
  viability at 0.001 µg/mL: 90 to 110%

## O=c1cc(CO)occ1O [Compound (8), 3-Hydroxy-6-hydroxymethyl-4H-pyran-4-one]
[3]; [11]
  viability at 10 µg/mL: 110 to 130%
  viability at 1 µg/mL: 110 to 130%
  viability at 0.1 µg/mL: 90 to 110%
  viability at 0.01 µg/mL: 90 to 110%
  viability at 0.001 µg/mL: 90 to 110%

## CCCCCc1oc(CO)cc(=O)c1O [Compound (9), 3-Hydroxy-6-hydroxymethyl-2-pentyl-4H-pyran-4-one]
[3]; [11]
  viability at 10 µg/mL: 110 to 130%
  viability at 1 µg/mL: 90 to 110%
  viability at 0.1 µg/mL: 90 to 110%
  viability at 0.01 µg/mL: 90 to 110%
  viability at 0.001 µg/mL: 90 to 110%

## CCCCC(O)c1oc(CO)cc(=O)c1O (stereo not drawn) [Compound (10), 3-Hydroxy-6-hydroxymethyl-2-(1'-hydroxypentyl)-4H-pyran-4-one]
[3]; [11]
  viability at 10 µg/mL: 130 to 150%
  viability at 1 µg/mL: 110 to 130%
  viability at 0.1 µg/mL: 90 to 110%
  viability at 0.01 µg/mL: 90 to 110%
  viability at 0.001 µg/mL: 90 to 110%

## CCCCCc1oc(C)c(O)c(=O)c1O [Compound (11), 3,5-Dihydroxy-6-methyl-2-pentyl-4H-pyran-4-one]
[3]; [11]
  viability at 1 µg/mL: ≤ 90%
  viability at 0.1 µg/mL: 130 to 150%
  viability at 0.01 µg/mL: 90 to 110%
  viability at 0.001 µg/mL: 90 to 110%

## O=c1cc(C=Cc2ccccc2)occ1O [Compound (12), 3-Hydroxy-6-styryl-4H-pyran-4-one]
[3]; [11]
  viability at 10 µg/mL: ≤ 90%
  viability at 1 µg/mL: 110 to 130%
  viability at 0.1 µg/mL: 110 to 130%
  viability at 0.01 µg/mL: 90 to 110%
  viability at 0.001 µg/mL: 90 to 110%

## CC1=CC(=O)C(O)C=N1 (stereo not drawn) [Compound (13), 3-Hydroxy-6-methyl-4-pyridone]
[3]; [11]
  viability at 10 µg/mL: 130 to 150%
  viability at 1 µg/mL: 110 to 130%
  viability at 0.1 µg/mL: 90 to 110%
  viability at 0.01 µg/mL: 90 to 110%
  viability at 0.001 µg/mL: 90 to 110%

## O=C1C=C(CO)N=CC1O (stereo not drawn) [Compound (14), 3-Hydroxy-6-hydroxymethyl-4-pyridone]
[3]; [11]
  viability at 10 µg/mL: 110 to 130%
  viability at 1 µg/mL: 90 to 110%
  viability at 0.1 µg/mL: 90 to 110%
  viability at 0.01 µg/mL: 90 to 110%
  viability at 0.001 µg/mL: 90 to 110%

## O=c1ccocc1 [Compound (15), 4H-pyran-4-one, reference compound]
[3]; [11]
  viability at 10 µg/mL: 90 to 110%
  viability at 1 µg/mL: 90 to 110%
  viability at 0.1 µg/mL: 90 to 110%
  viability at 0.01 µg/mL: 90 to 110%
  viability at 0.001 µg/mL: 90 to 110%
[3]
  inhibitory effect against reduction in survival rate of neurons (in words): no inhibitory effect

## COc1coc(CO)cc1=O [Compound (16), 3-methoxy-6-hydroxymethyl-4H-pyran-4-one, reference compound]
[3]; [11]
  viability at 10 µg/mL: 90 to 110%
  viability at 1 µg/mL: 90 to 110%
  viability at 0.1 µg/mL: 90 to 110%
  viability at 0.01 µg/mL: 90 to 110%
  viability at 0.001 µg/mL: 90 to 110%
[3]
  inhibitory effect against reduction in survival rate of neurons (in words): no inhibitory effect

— patent publication US5962480A, “Drug for ameliorating brain diseases” (Wakunaga Pharmaceutical Co., Ltd., priority 1995, dated 1999)
